Earlier results on two compounds are cited in PMC2857392 (Biochemistry, 2010).

One series concerns the target Stx1 B-subunit (Stx1B). Particulars: read-out: dissociation constant (Kd) for B-subunit monomer.

Broadly, the Kd is the concentration at which binding is half-saturated. For `OC[C@H]1O[C@H](O[C@@H]2[C@H](O)[C@@H](O)[C@H](O[C@H]3[C@H](O)[C@@H](O)C(O)O[C@@H]3CO)O[C@@H]2CO)[C@H](O)[C@@H](O)[C@H]1O` (stereo partly drawn) [Pk trisaccharide, Galα1-4Galβ1-4Glc], the values for the Kd on Stx1 B-subunit (Stx1B) and on Stx1B were 500 to 1000 µM and 4800 µM, respectively. Regarding globotriaosylceramide [Gb3], the Kd at Stx1B is 0.003 µM.
